Measured values reported in US20110288154A1, “RNA Interference Mediated Inhibition of Epithelial Sodium Channel (ENaC) Gene Expression Using Short Interfering Nucleic Acid (siNA)” (MERCK & CO., INC., priority 2008, published 2011).
pIC50: −log10 of the molar value. [invAb] = inverted abasic unit; m = 2'-O-methyl; r = 2'-OH (RNA); f = 2'-fluoro

Key:
[1] = test system: mSCNN1A mRNA; experiment: Screening of ENaCα siNAs in mouse NIH 3T3 cells (quantitative RT-PCR); type: cell-based; parameters: Percent Reduction of the mSCNN1A mRNA relative to a non-targeting control siNA / Mouse % KD (efficacy of ENaCα mRNA knockdown): concentration or dose not given beside the values; conditions: for Mean (mSCNN1A expression normalized to the level of m36B4) / Percent Reduction of the mSCNN1A mRNA relative to a non-targeting control siNA / Avg ENaCα Expression (mSCNN1A) / Avg 36B4 Expression: mouse NIH 3T3 cells, n = 3; for Mean (mSCNN1A expression normalized to the level of m36B4) / Percent Reduction of the mSCNN1A mRNA relative to a non-targeting control siNA / Avg 36B4 Expression: 24 hours post-transfection; for Avg ENaCα Expression (mSCNN1A): harvested 24 hours post-transfection; for Avg 36B4 Expression: housekeeping gene used for normalisation
Protocol: siNA constructs (Table 1b) may be tested for efficacy in reducing ENaC RNA expression in, for example, A549 human lung carcinoma cells. A549 (human; ATCC cat# CCL-185) cells were cultured at 37° C. in the presence of 5% CO2 and grown in Ham's F12K medium with 2 mM L-glutamine adjusted to contain 1.5 g/L sodium bicarbonate and supplemented with fetal bovine serum at a final concentration of 10% and 100 U/mL penicillin. The A549 cells were plated approximately 24 hours before transfection in 96-well plates at 7,500 cells/well, 100 μl/well. After 24 hours complexes containing siNA and Lipofectamine 2000 (Invitrogen) were created as follows: a solution of Lipofectamine 2000 in OPTI-MEM was prepared containing Lipofectamine 2000 at a final concentration of 14 μg/ml. In parallel, solutions of the siNAs were prepared in OPTI-MEM at a final concentration of 150 nM. After both solutions were incubated at 20° C. for 20 minutes an equal volume of the siNA solutions and the Lipofectamine 2000 solution were added together for each of the siNAs. The resultant solution has the siNAs at a final concentration of 75 nM and Lipofectamine 2000 at a final concentration of 7 μg/ml. This solution was incubated at 20° C. for 20 minutes. After incubation 50 μl of the solution were added to each of the wells (in triplicate). The final concentration of siNA in each well was 25 nM and the final concentration of Lipofectamine 2000 in each well was 2.33 μg/ml. The plates were incubated for 48 hours with no change of media before harvesting. Dose response curves were determined in a similar manner with each concentration being done in triplicate and maintaining a constant amount of Lipofectamine 2000 in each transfection.
(§1) A series of probes and primers were used to detect the various mRNA transcripts of the genes of ENaCa and GAPDH in mouse, rat, and human cell lines. The assays were performed on an ABI 7500 instrument, according to the manufacturer's instructions. Within each experiment, the baseline was set in the exponential phase of the amplification curve, and based on the intersection point of the baselines with the amplification curve, a Ct value was assigned by the instrument. This Ct value was then assigned a QTY value based on the Standard Curve. The standard curve in the various experiments herein used 1 ng to 300 ng of RNA extracted from the same cell line used for the experimental transfections.
(§2) All IC50 values were calculated from the data using GraphPad Prizm software, specifically a sigmoidal, variable slope curve for simple ligand binding. Also, unless otherwise indicated, all calculations of the efficacy and potency (e.g., % knockdown) of the siNAs were done relative to a non-targeting control siNA. If reported, P-values were computed using The Students t-test, including the Welch Correction for unequal variances.
(§3) In all of the calculations of the % knock-down of mRNA, the calculation was made relative to the normalized level of expression of the gene of interest in the samples treated with the non-targeting control (NTC) unless otherwise indicated. The gene of interest expression level was divided by the level of expression of GAPDH or 36B4 (depending on the species) in each sample. The three replicates for each condition in each experiment were averaged and the standard deviation of those samples was calculated. The following formula was then used to calculate the % of knock-down of the gene of interest:
(§4) The ENaCα siNAs were designed and synthesized as described previously. The siNAs were screened in three cell lines. Human A549 cells, mouse NIH 3T3 and Rat H-4-II-E cells. The data from the screen of ENaCa siNAs in all three species is shown in Tables 3a, 3b, 4a, 4b, 5a, and 5b and a summary of the data for certain siNA molecules is presented in Table 6. Each screen was performed at 24 hrs. The decision to use this time point was based upon the degree of knockdown of the mRNA seen at that time point.

[2] = test system: rSCNN1A (r ENaCα) mRNA; experiment: Screening of ENaCα siNAs in Rat H-4-II-E cells (quantitative RT-PCR); type: cell-based; parameters: Percent Reduction of the r ENaCα mRNA relative to a non-targeting control siNA (NTCs) / Rat % KD (efficacy of ENaCα mRNA knockdown): concentration or dose not given beside the values; conditions: for Mean (rSCNN1A expression normalized to the level of rGAPDH) / Percent Reduction of the r ENaCα mRNA relative to a non-targeting control siNA (NTCs) / Avg ENaCα Expression (rSCNN1A) / Avg GAPDH Expression (rGAPDH): Rat H-4-II-E cells, n = 3; for Mean (rSCNN1A expression normalized to the level of rGAPDH) / Percent Reduction of the r ENaCα mRNA relative to a non-targeting control siNA (NTCs) / Avg GAPDH Expression (rGAPDH): 24 hours post-transfection; for Avg ENaCα Expression (rSCNN1A): harvested 24 hours post-transfection; for Avg GAPDH Expression (rGAPDH): housekeeping gene used for normalisation
Protocol: as §1, §2, §3, §4

Substance | Mean (mSCNN1A expression normalized to the level of m36B4) [1] | Percent Reduction of the mSCNN1A mRNA relative to a non-targeting control siNA [1] [%] | Avg ENaCα Expression (mSCNN1A) [1] | Avg 36B4 Expression [1] | pIC50 ([1]; mouse cell line, dose response, read-out: Mouse IC50 (potency of ENaCα mRNA knockdown)) | Mouse % KD (efficacy of ENaCα mRNA knockdown) ([1]; mouse cell line, summary) [%] | Mean (rSCNN1A expression normalized to the level of rGAPDH) [2] | Percent Reduction of the r ENaCα mRNA relative to a non-targeting control siNA (NTCs) [2] [%] | Avg ENaCα Expression (rSCNN1A) [2] | Avg GAPDH Expression (rGAPDH) [2] | pIC50 ([2]; rat cell line, dose response, read-out: Rat IC50 (potency of ENaCα mRNA knockdown)) | Rat % KD (efficacy of ENaCα mRNA knockdown) ([2]; rat cell line, summary) [%]
B GuGuGGcuGuGccuAcAuc TTB / GAUGuAGGcAcAGccAcAcUU (sense GUGUGGCUGUGCCUACAUCTT; antisense GAUGUAGGCACAGCCACACUU; siRNA; B caps on sense ends, letter-case modifications not given here, further chemistry not given here) [Site 1383] | 0.04 | 82.4 | 0.91 | 14.23 | 8.52 | 82 | 0.63 | 50.7 | 15.01 | 23.52 | 9.00 | 50
B GuccAAccuGGGcAGccAG TTB / CUGGcuGcccAGGuuGGAcUU (sense GUCCAACCUGGGCAGCCAGTT; antisense CUGGCUGCCCAGGUUGGACUU; siRNA; sense: DNA at AGT, 2'-fluoro at CU, [invAb] at 5' end, 3' end, backbone not given here; antisense: sugars from the 5' end rmmmffmfffmmmffmmmfmm, backbone not given here) [Site 1743] | 0.13 | 6.7 | 2.87 | 22.47 |  |  | 0.52 | 43.9 | 22.13 | 42.82 |  | 
B cAGAGcAGAAuGAcuucAu TTB / AUGAAGucAuucuGcucuGUU (sense CAGAGCAGAAUGACUUCAUTT; antisense AUGAAGUCAUUCUGCUCUGUU; siRNA; sense: DNA at AGT, 2'-fluoro at CU, [invAb] at 5' end, 3' end, backbone not given here; antisense: sugars from the 5' end rrrmmmffmffffmffffmmm, backbone not given here) [Site 1100] | 0.24 | −1.5 | 3.43 | 14.25 |  |  | 0.83 | 35.4 | 21.68 | 26.15 |  | 
B cAcAAccGcAuGAAGAcGG TTB / CCGucuucAuGcGGuuGuGUU (chain 1 CACAACCGCAUGAAGACGGTT; chain 2 CCGUCUUCAUGCGGUUGUGUU; siRNA; chain 1: DNA at AGT, 2'-fluoro at CU, [invAb] at 5' end, 3' end, backbone not given here; chain 2: sugars from the 5' end rrrfffffmfmfmmffmfmmm, backbone not given here) [Site 334] | 0.21 | 12.3 | 3.57 | 16.98 |  |  | 0.85 | 33.7 | 16.10 | 19.11 |  | 
B cAcuccuGcuuccAGGAGA TTB / UCUccuGGAAGcAGGAGuGUU (sense CACUCCUGCUUCCAGGAGATT; antisense UCUCCUGGAAGCAGGAGUGUU; siRNA; sense: DNA at AGT, 2'-fluoro at CU, [invAb] at 5' end, 3' end, backbone not given here; antisense: sugars from the 5' end rrrfffmmmmmfmmmmmfmmm, backbone not given here) [Site 1351] | 0.22 | 9.6 | 2.56 | 11.91 |  |  | 0.72 | 43.7 | 18.06 | 24.87 |  | 
B cGcAuGAAGAcGGccuucu TTB / AGAAGGccGucuucAuGcGUU (chain 1 CGCAUGAAGACGGCCUUCUTT; chain 2 AGAAGGCCGUCUUCAUGCGUU; siRNA; chain 1: DNA at AGT, 2'-fluoro at CU, [invAb] at 5' end, 3' end, backbone not given here; chain 2: sugars from the 5' end rrrmmmffmfffffmfmfmmm, backbone not given here) [Site 340] | 0.23 | 5.4 | 3.35 | 14.93 |  |  | 1.07 | 16.7 | 22.68 | 21.20 |  | 
B ccAuccGccuGGuGuGcuc TTB / GAGcAcAccAGGcGGAuGGUU (chain 1 CCAUCCGCCUGGUGUGCUCTT; chain 2 GAGCACACCAGGCGGAUGGUU; siRNA; chain 1: DNA at AGT, 2'-fluoro at CU, [invAb] at 5' end, 3' end, backbone not given here; chain 2: sugars from the 5' end rrrfmfmffmmmfmmmfmmmm, backbone not given here) [Site 311] | 0.23 | 4.6 | 3.83 | 16.80 |  |  | 0.83 | 35.2 | 16.42 | 19.71 |  | 
